Values of other authors, collected in patent US8183280B2, “FAP inhibitors” (Vantia Limited, priority 2005, dated 2012).

System: syngeneic tumours
Settings: mice, oral administration; Cancer Res., 2004, 64: 5471

CC(C)[C@H](N)C(=O)N1CCC[C@H]1B(O)O [ValboroPro]
anti-tumour activity: potent anti-tumour activity in mice
